Test results taken from US20240279176A1, “SUBSTITUTED TRICYCLIC HETEROCYCLIC COMPOUNDS AS METALLO-BETA-LACTAMASE INHIBITORS” (priority 2021, published 2024).
Read-outs that look alike come from different tables or passages of the source.

Legend:
IMP-1 = IMP-1 (Serratia marcescens, UniProt P52699); assay: Enzyme activity: IC50 in fluorescence assay with cephalosporin substrate FC5; format: biochemical; details: 100 pM IMP-1, 10 μM FC5, 10 min pre-incubation
Experimental: (§1) The Class B beta-lactamases activities were measured in the presence of the test inhibitors in a fluorescence assay against an in-house synthesized fluorescent cephalosporin substrate FC5 (Berkel, et. al. J. Med. Chem. 2013, 56(17), 6945). The enzymes (NDM-1, IMP-1) and the substrate were diluted in 20 mM HEPES, pH 7.4, supplemented with 300 mM NaCl and 10 μM ZnSO4. In the assay, the final concentration of enzyme was 50 pM, and 100 pM for NDM-1, and IMP-1 respectively, and the final concentration of FC5 was 1.5 μM for NDM-1 and 10 μM for IMP-1. The test inhibitors/compounds were dissolved in dimethylsulfoxide (DMSO) and diluted in the assay with assay buffer (20 mM HEPES, pH 7.4, supplemented with 5% DMSO, 300 mM NaCl and 10 μM ZnSO4), resulting in a final concentration range of 0.008 μM to 25 μM. The assays were performed in 96-well microplate (flat bottom, black). The test inhibitors were incubated with the MBL enzyme for 10 min at room temperature, followed by addition the substrate and the fluorescence was recorded immediately (λex 380 nm, λem 460 nm) on a microplate reader. Using the initial velocity data plotted against the inhibitor concentration, the half-maximal inhibitory concentrations were calculated by an IC50 curve-fitting model in GraphPad Prism 9 software.

NDM-1 = NDM-1 (Klebsiella pneumoniae, UniProt C7C422); assay: as above; format: biochemical; details: 50 pM NDM-1, 1.5 μM FC5, 10 min pre-incubation
Experimental: as §1

[1] = test system: Klebsiella pneumoniae ATCC BAA-2146; assay: Checkerboard synergy assay in combination with Imipenem; format: cell-based; details: K. pneumoniae ATCC BAA-2146; for Fold reduction in Imipenem MIC in the presence of compounds (μg/mL) 4: compound at 4 μg/mL; for Fold reduction in Imipenem MIC in the presence of compounds (μg/mL) 8: compound at 8 μg/mL; for Fold reduction in Imipenem MIC in the presence of compounds (μg/mL) 16: compound at 16 μg/mL; for Fold reduction in Imipenem MIC in the presence of compounds (μg/mL) 32: compound at 32 μg/mL
From the text: (§2) The strain included in the study was Klebsiella pneumoniae ATCC BAA-2146 (Himedia®, India) with presence of New Delhi metallo-β-lactamase (NDM-1) gene. The quality control reference strains Escherichia coli ATCC 25922 and Pseudomonas aeruginosa ATCC 27853 were procured from Himedia®, India.
(§3) The fold modulation activity of test compounds, in combination with Imipenem or Meropenem, was checked against Klebsiella pneumoniae ATCC BAA-2146 strain by the broth-microdilution checkerboard synergy assay. The plates contained 5×10^5 CFU/mL bacterial inocula and 2-fold serial dilutions of the antibiotics (128-2 μg/mL) as well as test compounds (32-4 μg/mL) in a total volume of 200 μL of CA-MHB. Dimethyl sulfoxide (DMSO, ≤2.5%) was included as vehicle control. Following 16-18 h of incubation at 37° C., the MICs of antibiotics as well as drug combinations were visually inspected.

[2] = test system: Klebsiella pneumoniae ATCC BAA-2146; assay: Minimum inhibitory concentration (MIC), broth-microdilution (CLSI); format: cell-based
From the text: as §2
MIC values were identified through broth-microdilution in sterilized 96-well polystyrene flat-bottom microtitre plates (Cole-Parmer®) according to the guideline of the Clinical and Laboratory Standards Institute (CLSI) (CLSI; Methods for dilution antimicrobial susceptibility tests for bacteria that grow aerobically; Clinical Laboratory Standards Institute, M07-A09, 2012). This method involves the use of BBL™ Cation-adjusted Mueller-Hinton II Broth (CA-MHB; BD) and the strain (Klebsiella pneumoniae ATCC BAA-2146) concentration was adjusted to 5×10^5 CFU/mL. After 16-18 h of incubation at various concentrations of Imipenem, Meropenem (Alfa Aesar), or test compounds at 37° C., MIC was defined as the lowest concentration of antibiotic or test compound with no visible growth.

[3] = test system: Klebsiella pneumoniae ATCC BAA-2146; assay: Checkerboard synergy assay in combination with Meropenem; format: cell-based; details: K. pneumoniae ATCC BAA-2146; for Fold reduction in meropenem MIC in the presence of compounds (μg/mL) 4: compound at 4 μg/mL; for Fold reduction in meropenem MIC in the presence of compounds (μg/mL) 8: compound at 8 μg/mL; for Fold reduction in meropenem MIC in the presence of compounds (μg/mL) 16: compound at 16 μg/mL; for Fold reduction in meropenem MIC in the presence of compounds (μg/mL) 32: compound at 32 μg/mL
From the text: as §2, §3

[4] = ATCCBAA2146, compound alone, Imipenem series, K. pneumoniae ATCC BAA-2146, read-out: Intrinsic MIC
[5] = ATCCBAA2146, compound alone, meropenem series, K. pneumoniae ATCC BAA-2146, read-out: Intrinsic MIC

IMP-1, sequence (P52699 19-246, looked up, species assumed): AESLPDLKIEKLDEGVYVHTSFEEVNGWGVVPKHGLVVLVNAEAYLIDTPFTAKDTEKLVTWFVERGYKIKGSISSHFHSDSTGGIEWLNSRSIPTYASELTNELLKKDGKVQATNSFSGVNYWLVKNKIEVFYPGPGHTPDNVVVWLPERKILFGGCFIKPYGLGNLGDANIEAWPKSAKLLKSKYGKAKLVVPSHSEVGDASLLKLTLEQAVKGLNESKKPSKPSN
NDM-1, sequence (C7C422 29-270, looked up): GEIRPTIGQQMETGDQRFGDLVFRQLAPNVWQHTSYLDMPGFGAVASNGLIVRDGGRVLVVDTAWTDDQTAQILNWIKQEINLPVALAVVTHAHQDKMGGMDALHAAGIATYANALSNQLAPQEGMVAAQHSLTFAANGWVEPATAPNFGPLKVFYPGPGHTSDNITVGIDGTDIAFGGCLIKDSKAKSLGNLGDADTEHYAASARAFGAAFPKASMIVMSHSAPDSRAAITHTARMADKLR

Structure (SMILES)	IC50 (IMP-1)	IC50 (NDM-1)	Fold reduction in Imipenem MIC in the presence of compounds (μg/mL) 4 [1]	Fold reduction in Imipenem MIC in the presence of compounds (μg/mL) 8 [1]	Fold reduction in Imipenem MIC in the presence of compounds (μg/mL) 16 [1]	Fold reduction in Imipenem MIC in the presence of compounds (μg/mL) 32 [1]	MIC [2, 4]	MIC [2, 5]	Fold reduction in meropenem MIC in the presence of compounds (μg/mL) 4 [3]	Fold reduction in meropenem MIC in the presence of compounds (μg/mL) 8 [3]	Fold reduction in meropenem MIC in the presence of compounds (μg/mL) 16 [3]	Fold reduction in meropenem MIC in the presence of compounds (μg/mL) 32 [3]	MIC ([2]; ATCCBAA2146, antibiotic alone, read-out: MIC of meropenem against Klebsiella pneumoniae ATCC BAA-2146)
O=C(O)c1[nH]c2c(c1-c1ccccc1)CCc1ccccc1-2 [Example 63, 3-phenyl-4,5-dihydro-1H-benzo[g]indole-2-carboxylic Acid]	4.05 µM	2.36 µM	4 fold	4 fold	8 fold	8 fold	> 128 µg/mL	> 128 µg/mL					
O=C(O)c1[nH]c2c(c1-c1cc(F)cc(Cl)c1)CCc1ccccc1-2 [Example 58, 3-(3-chloro-5-fluorophenyl)-4,5-dihydro-1H-benzo[g]indole-2-carboxylic Acid]	0.869 µM	0.009 µM	4 fold	8 fold	8 fold	16 fold	> 128 µg/mL	> 128 µg/mL					
O=C(O)c1[nH]c2c(c1-c1cccc(Cl)c1)CCc1ccccc1-2 [Example 45, 3-(3-chlorophenyl)-4,5-dihydro-1H-benzo[g]indole-2-carboxylic Acid]		0.132 µM	2 fold	4 fold	8 fold	8 fold	> 128 µg/mL	> 128 µg/mL	2 fold	4 fold	4 fold	8 fold	
Cc1cc(Cl)cc(-c2c(C(=O)O)[nH]c3c2CCc2ccccc2-3)c1 [Example 57, 3-(3-chloro-5-methylphenyl)-4,5-dihydro-1H-benzo[g]indole-2-carboxylic Acid]		1.6 µM	4 fold	8 fold	8 fold	16 fold	> 128 µg/mL	> 128 µg/mL	4 fold	4 fold	8 fold	8 fold	
COc1cc(F)cc(-c2c(C(=O)O)[nH]c3c2CCc2ccccc2-3)c1 [Example 62, 3-(3-fluoro-5-methoxyphenyl)-4,5-dihydro-1H-benzo[g]indole-2-carboxylic Acid]	3.45 µM	0.196 µM	4 fold	4 fold	8 fold	8 fold	> 128 µg/mL	> 128 µg/mL					
C[C@@H](O)[C@H]1C(=O)N2C(C(=O)O)=C(S[C@@H]3CN[C@H](C(=O)N(C)C)C3)[C@H](C)[C@H]12 [meropenem, reference compound]													128 µg/mL
O=C(O)c1[nH]c2c(c1-c1cc(Cl)c(Cl)c(Cl)c1)CCc1ccccc1-2 [Example 60, 3-(3,4,5-trichlorophenyl)-4,5-dihydro-1H-benzo[g]indole-2-carboxylic Acid]	1.56 µM		4 fold	8 fold	8 fold	16 fold	> 128 µg/mL	> 128 µg/mL	4 fold	8 fold	8 fold	8 fold	
